Test results: ChEMBL document CHEMBL1201862, “PubChem BioAssay data set” (2004)
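Compound exposure: 48 hours, 5 concentrations, 96-well plates. GI50: concentration for 50% inhibition of growth.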 Active and inactive are the calls of the source. No stated cut-off is given here; in the data, active = GI50 up to about 1.1 µM and inactive = higher.

How the values were obtained:
Assay in all cases: NCI-60 cell line screen, 48 h
HL-60 = system: HL-60
SK-MEL-5 = system: SK-MEL-5
COLO 205 = system: COLO 205
RPMI-8226 = system: RPMI-8226
DU-145 = system: DU-145
Hs-578T = system: Hs-578T
NCI-H226 = system: NCI-H226
EKVX = system: EKVX
NCI-H522 = system: NCI-H522
PC-3 = system: PC-3
BT-549 = system: BT-549
SK-OV-3 = system: SK-OV-3
786-0 = system: 786-0
NCI-H460 = system: NCI-H460
HCC 2998 = system: HCC 2998
A498 = system: A498
HOP-62 = system: HOP-62
U-251 = system: U-251
OVCAR-4 = system: OVCAR-4

Compound: CC[N+]1(C)CCC(O)(/C=C/c2ccc(Cl)c(Cl)c2)C(C(=O)/C=C/c2ccc(Cl)c(Cl)c2)C1 (configuration not stated)
- GI50 (HL-60): 1.9 µM (inactive)
- GI50 (SK-MEL-5): 2.68 µM (inactive)
- GI50 (COLO 205): 2.65 µM (inactive)
- GI50 (RPMI-8226): 2.17 µM (inactive)
- GI50 (DU-145): 2.71 µM (inactive)
- GI50 (Hs-578T): 2.91 µM (inactive)
- GI50 (NCI-H226): 4.08 µM (inactive)
- GI50 (EKVX): 11.1 µM (inactive)
- GI50 (NCI-H522): 1.77 µM (inactive)
- GI50 (PC-3): 2.18 µM (inactive)
- GI50 (BT-549): 2.96 µM (inactive)
- GI50 (SK-OV-3): 3.41 µM (inactive)
- GI50 (786-0): 1.81 µM (inactive)
- GI50 (NCI-H460): 2.99 µM (inactive)
- GI50 (HCC 2998): 1.95 µM (inactive)
- GI50 (A498): 2.52 µM (inactive)
- GI50 (HOP-62): 2.49 µM (inactive)
- GI50 (U-251): 1.77 µM (inactive)

Compound: Cc1ccc(C2=Nc3cc(C)c(Cl)cc3S(=O)(=O)NN2)cc1
- GI50 (HL-60): 34.4 µM (inactive)
- GI50 (SK-MEL-5): > 100 µM (inactive)
- GI50 (COLO 205): > 100 µM (inactive)
- GI50 (RPMI-8226): > 100 µM (inactive)
- GI50 (DU-145): > 100 µM (inactive)
- GI50 (Hs-578T): > 100 µM (inactive)
- GI50 (NCI-H226): > 100 µM (inactive)
- GI50 (EKVX): > 100 µM (inactive)
- GI50 (NCI-H522): > 100 µM (inactive)
- GI50 (OVCAR-4): 77.4 µM (inactive)
- GI50 (PC-3): > 100 µM (inactive)
- GI50 (BT-549): > 100 µM (inactive)
- GI50 (SK-OV-3): > 100 µM (inactive)
- GI50 (786-0): 58.1 µM (inactive)
- GI50 (NCI-H460): > 100 µM (inactive)
- GI50 (HCC 2998): > 100 µM (inactive)
- GI50 (A498): > 100 µM (inactive)
- GI50 (HOP-62): > 100 µM (inactive)
- GI50 (U-251): > 100 µM (inactive)

Compound: CC(=O)NC1=C(C)C(=O)c2c(nc3n2CCC3OC(=O)c2ccccc2)C1=N (configuration not stated)
- GI50 (HL-60): 1.21 µM (inactive)
- GI50 (SK-MEL-5): 1.42 µM (inactive)
- GI50 (COLO 205): 1.38 µM (inactive)
- GI50 (RPMI-8226): 1.31 µM (inactive)
- GI50 (DU-145): 1.97 µM (inactive)
- GI50 (Hs-578T): 2.06 µM (inactive)
- GI50 (NCI-H226): 4.24 µM (inactive)
- GI50 (EKVX): 2.55 µM (inactive)
- GI50 (NCI-H522): 3.83 µM (inactive)
- GI50 (OVCAR-4): 0.518 µM (active)
- GI50 (PC-3): 1.32 µM (inactive)
- GI50 (BT-549): 0.689 µM (active)
- GI50 (SK-OV-3): 3.36 µM (inactive)
- GI50 (786-0): 1.93 µM (inactive)
- GI50 (NCI-H460): 1.99 µM (inactive)
- GI50 (HCC 2998): 2.06 µM (inactive)
- GI50 (A498): 1.96 µM (inactive)
- GI50 (HOP-62): 3.09 µM (inactive)
- GI50 (U-251): 3.22 µM (inactive)

Compound: C=CC[C@H]1[C@@H](O[Si](C)(C)C(C)(C)C)[C@H](n2ccc(=O)[nH]c2=O)O[C@@H]1CO[Si](C)(C)C(C)(C)C
- GI50 (HL-60): 0.971 µM (active)
- GI50 (SK-MEL-5): 1.72 µM (inactive)
- GI50 (COLO 205): 1.79 µM (inactive)
- GI50 (RPMI-8226): 2.11 µM (inactive)
- GI50 (DU-145): 2.09 µM (inactive)
- GI50 (Hs-578T): 3.01 µM (inactive)
- GI50 (NCI-H226): 4.11 µM (inactive)
- GI50 (EKVX): 1.67 µM (inactive)
- GI50 (NCI-H522): 1.76 µM (inactive)
- GI50 (OVCAR-4): 1.82 µM (inactive)
- GI50 (PC-3): 2.44 µM (inactive)
- GI50 (BT-549): 3.05 µM (inactive)
- GI50 (SK-OV-3): 1.36 µM (inactive)
- GI50 (786-0): 1.56 µM (inactive)
- GI50 (NCI-H460): 1.9 µM (inactive)
- GI50 (HCC 2998): 1.93 µM (inactive)
- GI50 (A498): 3.01 µM (inactive)
- GI50 (HOP-62): 1.76 µM (inactive)
- GI50 (U-251): 2.09 µM (inactive)

Compound: CNC(=O)CNC(=O)C(Cc1ccc(NC(=O)CCCCC(C)=O)cc1)NC(=O)C(CCC(=O)OCc1ccccc1)NC(=O)OC(C)(C)C (configuration not stated)
- GI50 (HL-60): > 100 µM (inactive)
- GI50 (SK-MEL-5): > 100 µM (inactive)
- GI50 (COLO 205): > 100 µM (inactive)
- GI50 (RPMI-8226): > 100 µM (inactive)
- GI50 (DU-145): > 100 µM (inactive)
- GI50 (Hs-578T): > 100 µM (inactive)
- GI50 (NCI-H226): > 100 µM (inactive)
- GI50 (EKVX): > 100 µM (inactive)
- GI50 (NCI-H522): > 100 µM (inactive)
- GI50 (OVCAR-4): > 100 µM (inactive)
- GI50 (PC-3): > 100 µM (inactive)
- GI50 (BT-549): > 100 µM (inactive)
- GI50 (SK-OV-3): > 100 µM (inactive)
- GI50 (786-0): > 100 µM (inactive)
- GI50 (NCI-H460): > 100 µM (inactive)
- GI50 (HCC 2998): > 100 µM (inactive)
- GI50 (A498): 48.3 µM (inactive)
- GI50 (HOP-62): > 100 µM (inactive)
- GI50 (U-251): > 100 µM (inactive)

Compound: COc1cc2oc(-c3ccc(O)cc3)c(OC3OC(C)C(O)C(O)C3O)c(=O)c2c(O)c1OC (configuration not stated)
- GI50 (HL-60): 32.9 µM (inactive)
- GI50 (SK-MEL-5): 45.1 µM (inactive)
- GI50 (COLO 205): > 100 µM (inactive)
- GI50 (RPMI-8226): 16.7 µM (inactive)
- GI50 (DU-145): 99.8 µM (inactive)
- GI50 (Hs-578T): > 100 µM (inactive)
- GI50 (NCI-H226): > 100 µM (inactive)
- GI50 (EKVX): > 100 µM (inactive)
- GI50 (NCI-H522): 37 µM (inactive)
- GI50 (OVCAR-4): 57.8 µM (inactive)
- GI50 (PC-3): > 100 µM (inactive)
- GI50 (BT-549): 62.1 µM (inactive)
- GI50 (SK-OV-3): > 100 µM (inactive)
- GI50 (786-0): 51.2 µM (inactive)
- GI50 (NCI-H460): 45.8 µM (inactive)
- GI50 (HCC 2998): > 100 µM (inactive)
- GI50 (A498): > 100 µM (inactive)
- GI50 (HOP-62): > 100 µM (inactive)
- GI50 (U-251): 89.5 µM (inactive)

Compound: Cc1ccc2c(O)cc(-c3cccc4ccccc34)nc2n1
- GI50 (HL-60): < 0.01 µM (active)
- GI50 (SK-MEL-5): < 0.0117 µM (active)
- GI50 (COLO 205): 0.022 µM (active)
- GI50 (RPMI-8226): 0.0227 µM (active)
- GI50 (DU-145): 0.0392 µM (active)
- GI50 (Hs-578T): 0.043 µM (active)
- GI50 (NCI-H226): 0.0398 µM (active)
- GI50 (EKVX): 0.0338 µM (active)
- GI50 (NCI-H522): < 0.0187 µM (active)
- GI50 (OVCAR-4): 0.495 µM (active)
- GI50 (PC-3): 0.0282 µM (active)
- GI50 (BT-549): 0.652 µM (active)
- GI50 (SK-OV-3): 0.021 µM (active)
- GI50 (786-0): 0.0349 µM (active)
- GI50 (NCI-H460): 0.0342 µM (active)
- GI50 (HCC 2998): 0.0294 µM (active)
- GI50 (A498): 0.0101 µM (active)
- GI50 (HOP-62): 1.88 µM (inactive)
- GI50 (U-251): 0.0166 µM (active)
